Reference: patent US20200148646A1, “6-S[…] 7-S[…] ANALOGS AND THE USE THEREOF” (Purdue Pharma, L.P., priority 2013, published 2020)

What was measured:
[1] = target: T1, μ-opioid receptor (Homo sapiens, UniProt P35372); assay: μ-opioid receptor radioligand ([3H]-diprenorphine) dose-displacement binding assay, HEK-293 or CHO cells
Protocol: Radioligand dose-displacement binding assays for μ-opioid receptors used 0.3 nM [^3H]-diprenorphine (Perkin Elmer, Shelton, Conn.), with […] membrane protein/well in a final volume of 500 μl binding buffer (10 mM MgCl2, 1 mM EDTA, 5% DMSO, 50 mM HEPES, pH 7.4). Reactions were carried out in the absence or presence of increasing concentrations of unlabeled naloxone. All reactions were conducted in 96-deep well polypropylene plates for 2 hr at room temperature. Binding reactions were terminated by rapid filtration onto 96-well Unifilter GF/C filter plates (Perkin Elmer, Shelton, Conn.), presoaked in 0.5% polyethylenimine using a 96-well tissue harvester (Perkin Elmer, Shelton, Conn.) followed by performing three filtration washes with 500 μl of ice-cold binding buffer. Filter plates were subsequently dried at 50° C. for 2-3 hours. BetaScint scintillation cocktail (Perkin Elmer, Shelton, Conn.) was added (50 l/well), and plates were counted using a Packard Top-Count for 1 min/well. The data were analyzed using the one-site competition curve fitting functions in GraphPad PRISM™ v. 3.0 or higher (San Diego, Calif.), or an in-house function for one-site competition curve-fitting.
(§1) In TABLE 1, binding affinity of certain Compounds of the Invention to the μ-, and κ-opioid receptors in HEK-293 or CHO cells was determined as described above.

[2] = target: T1, μ-opioid receptor; assay: μ-opioid receptor [35S]GTPγS functional assay, HEK-293 or CHO cells; type: biochemical; conditions: for Emax: HEK-293 or CHO cells, relative to DAMGO
Protocol: [^35S]GTPγS functional assays were conducted using freshly thawed μ-receptor membranes prepared in-house from a cell line expressing recombinant opioid receptor in a HEK-293, CHO or U-2 OS cell background, or purchased from a commercial source (Perkin Elmer, Shelton, Conn.; or DiscovRx, Fremont, Calif.). Assay reactions were prepared by sequentially adding the following reagents to binding buffer (100 mM NaCl, 10 mM MgCl2, 20 mM HEPES, pH 7.4) on ice (final concentrations indicated): membrane protein (0.026 mg/mL), saponin ([…]), GDP ([…]) and [^35S]GTPγS (0.20 nM; Perkin Elmer, Shelton, Conn.). The prepared membrane solution (190 l/well) was transferred to 96-shallow well polypropylene plates containing 10 μl of 20× concentrated stock solutions of the agonist [D-Ala^2, N-methyl-Phe^4 Gly-ol^5]-enkephalin (DAMGO) prepared in dimethyl sulfoxide (DMSO). Plates were incubated for 30 min at about 25° C. with shaking. Reactions were terminated by rapid filtration onto 96-well Unifilter GF/B filter plates (Perkin Elmer, Shelton, Conn.) using a 96-well tissue harvester (Perkin Elmer, Shelton, Conn.) followed by three filtration washes with 200 μl of ice-cold wash buffer (10 mM NaH2PO4, 10 mM Na2HPO4, pH 7.4). Filter plates were subsequently dried at 50° C. for 2-3 hr. BetaScint scintillation cocktail (Perkin Elmer, Shelton, Conn.) was added (50 μl/well) and plates were counted using a Packard Top-Count for 1 min/well. Data were analyzed using the sigmoidal dose-response curve fitting functions in GraphPad PRISM v. 3.0, or an in-house function for non-linear, sigmoidal dose-response curve-fitting.
μ GTP EC50 is the concentration of a compound providing 50% of the maximal response for the compound at a μ-opioid receptor.
μ GTP Emax (%) is the maximal effect elicited by a compound relative to the effect elicited by DAMGO, a standard agonist. Generally, the μ GTP Emax (%) value measures the efficacy of a compound to treat or prevent pain or other Conditions.
In TABLE 2, activity response of certain Compounds of the Invention at the μ- and κ-opioid receptors using HEK-293 or CHO cells was determined as described above for functional assays.

[3] = target: T1, μ-opioid receptor; assay: μ-opioid receptor [35S]GTPγS functional assay, U-2 OS cells; type: biochemical; parameters: host or cells: U-2 OS cells; conditions: for Emax: U2-OS cells, relative to DAMGO
Summary of the method: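 U-2 OS membranes expressing recombinant human μ-receptor (0.026 mg/mL) were incubated with compound, […], saponin and [35S]GTPγS 0.20 nM in HEPES/NaCl/MgCl2 buffer pH 7.4 for 30 min at about 25° C. Filter-bound radioactivity gave sigmoidal fits for EC50; Emax is relative to DAMGO.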

[4] = target: T2, human κ opioid receptor (Homo sapiens, UniProt P41145); assay: κ-opioid receptor radioligand ([3H]-U69,593) dose-displacement binding assay, HEK-293 or CHO cells; parameters: expressed in transfected cells; host or cells: HEK-293 cells (in-house prep)
Protocol: Membranes from recombinant HEK-293 cells expressing the human K opioid receptor (cloned in house) were prepared by lysing cells in ice cold hypotonic buffer (2.5 mM MgCl2, 50 mM HEPES, pH 7.4) (10 mL/10 cm dish) followed by homogenization with a tissue grinder/Teflon pestle. Membranes were collected by centrifugation at 30,000×g for 15 min at 4° C. and pellets were resuspended in hypotonic buffer to a final concentration of 1-3 mg/mL. Protein concentrations were determined using the BioRad protein assay reagent with bovine serum albumen as standard. Aliquots of κ receptor membranes were stored at −80° C.
Radioligand dose displacement assays used 0.4 nM [^3H]-U69,593 (GE Healthcare, Piscataway, N.J.; 40 Ci/mmole) with 15 μg membrane protein (recombinant K opioid receptor expressed in HEK 293 cells; in-house prep) in a final volume of 200 μl binding buffer (5% DMSO, 50 mM Trizma base, pH 7.4). Non-specific binding was determined in the presence of 10 μM unlabeled naloxone or U69,593. All reactions were performed in 96-well polypropylene plates for 1 hr at a temperature of about 25° C. Binding reactions were terminated by rapid filtration onto 96-well Unifilter GF/C filter plates (Perkin Elmer, Shelton, Conn.) presoaked in 0.5% polyethylenimine (Sigma). Harvesting was performed using a 96-well tissue harvester (Perkin Elmer, Shelton, Conn.) followed by five filtration washes with 200 μl ice-cold binding buffer. Filter plates were subsequently dried at 50° C. for 1-2 hours. Fifty μl/well scintillation cocktail (Perkin Elmer, Shelton, Conn.) was added and plates were counted in a Packard Top-Count for 1 min/well.
as §1

[5] = target: T2, human κ opioid receptor; assay: κ-opioid receptor [35S]GTPγS functional assay, U-2 OS cells; type: biochemical; parameters: expressed in transfected cells; host or cells: U-2 OS cells (in-house membranes); conditions: for Emax: U2-OS cells, relative to U69,593
Summary of the method: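 Membranes from U-2 OS cells expressing human κ receptor (0.026 μg/μl protein) were incubated with agonist, 10 μg/mL saponin, 3 μM GDP and 0.20 nM [35S]GTPγS in pH 7.4 HEPES buffer for 30 min at about 25 °C. Bound radioactivity was measured after filtration. EC50 was taken at half-maximal response; Emax is relative to U69,593.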

T1 sequence (P35372 whole entry, species assumed): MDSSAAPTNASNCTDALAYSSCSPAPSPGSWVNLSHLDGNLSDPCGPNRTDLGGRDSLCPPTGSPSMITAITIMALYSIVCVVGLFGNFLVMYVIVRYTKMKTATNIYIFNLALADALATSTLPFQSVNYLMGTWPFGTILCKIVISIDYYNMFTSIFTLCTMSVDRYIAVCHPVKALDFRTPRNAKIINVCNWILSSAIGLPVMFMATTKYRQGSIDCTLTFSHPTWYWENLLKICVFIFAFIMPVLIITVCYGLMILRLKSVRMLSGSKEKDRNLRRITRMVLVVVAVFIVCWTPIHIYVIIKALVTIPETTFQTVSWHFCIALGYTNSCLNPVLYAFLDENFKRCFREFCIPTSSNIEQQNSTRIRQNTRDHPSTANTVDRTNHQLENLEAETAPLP
T2 sequence (P41145 whole entry): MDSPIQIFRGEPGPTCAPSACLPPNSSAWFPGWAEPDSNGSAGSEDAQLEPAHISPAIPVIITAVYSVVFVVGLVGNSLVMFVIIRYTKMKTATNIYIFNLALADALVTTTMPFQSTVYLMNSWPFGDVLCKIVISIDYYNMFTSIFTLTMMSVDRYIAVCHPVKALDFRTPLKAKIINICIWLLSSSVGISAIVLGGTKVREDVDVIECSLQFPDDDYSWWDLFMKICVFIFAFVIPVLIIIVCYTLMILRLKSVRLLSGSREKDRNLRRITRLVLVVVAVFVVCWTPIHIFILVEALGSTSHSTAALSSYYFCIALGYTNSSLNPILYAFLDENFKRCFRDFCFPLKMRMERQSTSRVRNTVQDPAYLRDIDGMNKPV

SMILES	Ki [1] [nM]	EC50 [2] [nM]	Emax [2] [%]	EC50 [3] [nM]	Emax [3] [%]	Ki [4] [nM]	EC50 [5] [nM]	Emax [5] [%]
N=C(N)NCCCC(=O)N[C@@H]1CC[C@@]2(O)[C@H]3Cc4ccc(O)cc4[C@@]2(CCN3CC2CC2)C1 [Compound 22, N-((4bR,6R,8aS,9R)-11-(cyclopropylmethyl)-3,8a-dihydroxy-6,7,8,8a,9,10-hexahydro-5H-9,4b-(epiminoethano)phenanthren-6-yl)-4-guanidinobutanamide]	251 ± 29.4	> 20000	5 ± 1.53	247 ± 25.5	60 ± 5.51	1.85 ± 0.22	27.1 ± 4.18	107 ± 2.33
N=C(N)NCC(=O)N[C@@H]1CC[C@@]2(O)[C@H]3Cc4ccc(O)cc4[C@@]2(CCN3CC2CC2)C1 [Compound 20, N-((4bR,6R,8aS,9R)-11-(cyclopropylmethyl)-3,8a-dihydroxy-6,7,8,8a,9,10-hexahydro-5H-9,4b-(epiminoethano)phenanthren-6-yl)-2-guanidinoacetamide]	449 ± 53.5	> 20000	7.33 ± 0.88	394 ± 57.8	62.7 ± 4.26	3.23 ± 0.7	62.3 ± 2.37	111 ± 2.4
COc1ccc2c(c1)[C@]13CCN(CC4CC4)[C@H](C2)[C@]1(O)C[C@H](CO)[C@H](O)C3 [Compound 7, (4bR,6R,7R,8aS,9R)-11-(cyclopropylmethyl)-7-(hydroxymethyl)-3-methoxy-5,6,7,8,9,10-hexahydro-8aH-9,4b-(epiminoethano)phenanthrene-6,8a-diol]	10800 ± 843	4910	53.7 ± 4.37	–	–	7300 ± 1640	–	–
N=C(N)NCCCN[C@@H]1CC[C@@]2(O)[C@H]3Cc4ccc(O)cc4[C@@]2(CCN3CC2CC2)C1 [Compound 15, 1-(3-(((4bR,6R,8aS,9R)-11-(cyclopropylmethyl)-3,8a-dihydroxy-6,7,8,8a,9,10-hexahydro-5H-9,4b-(epiminoethano)phenanthren-6-yl)amino)propyl)guanidine]	54.1 ± 10.1	1110 ± 447	11.3 ± 0.33	41.5 ± 8.55	76.3 ± 3.38	0.53 ± 0.13	12.8 ± 1.3	108 ± 2.65
NCCCN[C@@H]1CC[C@@]2(O)[C@H]3Cc4ccc(O)cc4[C@@]2(CCN3CC2CC2)C1 [Compound 13, (4bR,6R,8aS,9R)-6-((3-aminopropyl)amino)-11-(cyclopropylmethyl)-5,6,7,8,9,10-hexahydro-8aH-9,4b-(epiminoethano)phenanthrene-3,8a-diol]	80 ± 27.1	–	–	38.9 ± 4.9	66.3 ± 5.78	0.51 ± 0.073	2.13 ± 0.41	117 ± 1.86
COc1ccc2c(c1)[C@]13CCN(CC4CC4)[C@H](C2)[C@]1(O)C[C@H](C)[C@H](O)C3 [Compound 3, (4bR,6R,7S,8aS,9R)-11-(cyclopropylmethyl)-3-methoxy-7-methyl-5,6,7,8,9,10-hexahydro-8aH-9,4b-(epiminoethano)phenanthrene-6,8a-diol]	6140 ± 963	2750	58.7 ± 4.18	–	–	3010 ± 339	–	–
